The text below walks through data of patent publication EP4685153A1 (priority 2023, dated 2024).

Residues, ends and D or L forms follow the SMILES beside them. *: point of attachment. Succinyl(4-O-cholesteryl) = CC(C)CCC[C@@H](C)[C@H]1CC[C@H]2[C@@H]3CC=C4C[C@@H](OC(=O)CCC(=O)*)CC[C@]4(C)[C@H]3CC[C@]12C

The IC50 is the point on the concentration scale where inhibition reaches its midpoint. Low values mean higher potency, high ones lower potency.

The assay deals with SARS-CoV-2 D614G mutant strain. As to conditions: 48 h.

`CC[C@H](C)[C@H](NC(=O)[C@H](CCCCN)NC(=O)[C@H](CCCCN)NC(=O)[C@H](CCC(=O)O)NC(=O)[C@H](CC(C)C)NC(=O)[C@H](CCC(=O)O)NC(=O)[C@H](CCC(=O)O)NC(=O)[C@H](CC(C)C)NC(=O)[C@H](CCC(=O)O)NC(=O)[C@H](CCCCN)NC(=O)[C@H](CCC(=O)O)NC(=O)[C@H](Cc1ccc(O)cc1)NC(=O)[C@H](CCC(=O)O)NC(=O)[C@H](CCC(=O)O)NC(=O)[C@H](Cc1ccc(O)cc1)NC(=O)[C@H](CCC(=O)O)NC(C)=O)C(=O)N[C@@H](CCC(=O)O)C(=O)N[C@@H](CCC(=O)O)C(=O)N[C@@H](CC(C)C)C(=O)N[C@@H](CC(C)C)C(=O)N[C@@H](CCCCN)C(=O)N[C@@H](CCCCN)C(=O)N[C@@H](C)C(=O)N[C@@H](CCC(=O)O)C(=O)N[C@@H](CCC(=O)O)C(=O)N[C@@H](CCC(N)=O)C(=O)N[C@@H](CCC(N)=O)C(=O)N[C@@H](CCCCN)C(=O)N[C@@H](CCCCN)C(=O)N[C@@H](CC(N)=O)C(=O)N[C@@H](CCC(=O)O)C(=O)N[C@@H](C)C(=O)N[C@@H](C)C(=O)N[C@@H](C)C(=O)N[C@@H](CCCCN)C(=O)N[C@@H](CCCCNC(=O)CCC(=O)O[C@H]1CC[C@@]2(C)C(=CC[C@H]3[C@@H]4CC[C@H]([C@H](C)CCCC(C)C)[C@@]4(C)CC[C@@H]32)C1)C(N)=O` [LP-127] (Ac-EYEEYEKELEELEKKIEELLKKAEEQQKKNEAAAKK(Succinyl(4-O-cholesteryl))-NH2) came in with a 50% inhibitory concentration (IC50) of 27.4 nM.
For `CC[C@H](C)[C@H](NC(=O)[C@H](CCCCN)NC(=O)[C@H](CCCCN)NC(=O)[C@H](CCC(=O)O)NC(=O)[C@H](CC(C)C)NC(=O)[C@H](CCC(=O)O)NC(=O)[C@H](CCC(=O)O)NC(=O)[C@H](CC(C)C)NC(=O)[C@H](CCC(=O)O)NC(=O)[C@H](CCCCN)NC(=O)[C@H](CCC(=O)O)NC(=O)[C@H](Cc1ccc(O)cc1)NC(=O)[C@H](CCC(=O)O)NC(C)=O)C(=O)N[C@@H](CCC(=O)O)C(=O)N[C@@H](CCC(=O)O)C(=O)N[C@@H](CC(C)C)C(=O)N[C@@H](CC(C)C)C(=O)N[C@@H](CCCCN)C(=O)N[C@@H](CCCCN)C(=O)N[C@@H](C)C(=O)N[C@@H](CCC(=O)O)C(=O)N[C@@H](CCC(=O)O)C(=O)N[C@@H](CCC(N)=O)C(=O)N[C@@H](CCC(N)=O)C(=O)N[C@@H](CCCCN)C(=O)N[C@@H](CCCCN)C(=O)N[C@@H](CC(N)=O)C(=O)N[C@@H](CCC(=O)O)C(=O)N[C@@H](C)C(=O)N[C@@H](C)C(=O)N[C@@H](C)C(=O)N[C@@H](CCCCN)C(=O)N[C@@H](CCCCNC(=O)CCC(=O)O[C@H]1CC[C@@]2(C)C(=CC[C@H]3[C@@H]4CC[C@H]([C@H](C)CCCC(C)C)[C@@]4(C)CC[C@@H]32)C1)C(N)=O` [LP-128] (Ac-EYEKELEELEKKIEELLKKAEEQQKKNEAAAKK(Succinyl(4-O-cholesteryl))-NH2), the IC50 was determined as 25.1 nM. This IC50 and that of the compound before are within 1.5-fold of each other.
